Assay results reported in ChEMBL document CHEMBL1132717, “Development of fluorine-18-labeled 5-HT1A antagonists” (J Med Chem, 1999).

Tests used:
Rattus norvegicus [1] = organism: Rattus norvegicus; experiment: Biodistribution of the [18F]-radiolabeled compound in rat hippocampus; assay type: ADME, organism-based; settings: in vivo
Rattus norvegicus [2] = organism: Rattus norvegicus; experiment: Biodistribution of the [18F]-radiolabeled compound in rat cerebellum; assay type: ADME, organism-based; settings: in vivo
Rattus norvegicus [3] = organism: Rattus norvegicus; experiment: Biodistribution of the [18F]-radiolabeled compound in rat cortex; assay type: ADME, organism-based; settings: in vivo
Rattus norvegicus [4] = organism: Rattus norvegicus; experiment: Biodistribution of the [18F]-radiolabeled compound in rat hypothalamus; assay type: ADME, organism-based; settings: in vivo
[5] = biological target: T1, 5-hydroxytryptamine receptor 1A (Homo sapiens, UniProt P08908); experiment: In vitro inhibition of [3H]- 8-OH-DPAT binding to cloned cell line containing human 5-hydroxytryptamine 1A receptor by Panlabs assay
T1 sequence (P08908 whole entry): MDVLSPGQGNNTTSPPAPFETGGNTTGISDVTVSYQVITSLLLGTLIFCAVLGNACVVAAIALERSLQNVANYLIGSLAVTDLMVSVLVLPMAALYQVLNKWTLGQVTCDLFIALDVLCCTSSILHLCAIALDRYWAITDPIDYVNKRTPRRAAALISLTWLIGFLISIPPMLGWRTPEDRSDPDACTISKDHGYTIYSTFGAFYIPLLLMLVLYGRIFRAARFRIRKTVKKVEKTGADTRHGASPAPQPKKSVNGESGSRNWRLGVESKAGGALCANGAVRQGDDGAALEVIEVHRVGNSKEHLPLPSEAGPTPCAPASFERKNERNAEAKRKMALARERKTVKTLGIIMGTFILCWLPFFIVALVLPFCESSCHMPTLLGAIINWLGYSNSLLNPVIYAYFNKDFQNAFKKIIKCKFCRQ

[6] = biological target: T1, 5-hydroxytryptamine receptor 1A; experiment: In vitro inhibition of [3H]- 8-OH-DPAT binding to cloned cell line containing human 5-hydroxytryptamine 1A receptor
[7] = biological target: T1, 5-hydroxytryptamine receptor 1A; experiment: In vitro inhibition of [3H]- 8-OH-DPAT binding to cloned cell line containing human 5-hydroxytryptamine 1A receptor (Experiment 2)
[8] = biological target: T1, 5-hydroxytryptamine receptor 1A; experiment: In vitro inhibition of [3H]- 8-OH-DPAT binding to cloned cell line containing human 5-hydroxytryptamine 1A receptor (Experiment 1)

| ID/g (Rattus norvegicus [1]) | ID/g (Rattus norvegicus [2]) | ID/g (Rattus norvegicus [3]) | ID/g (Rattus norvegicus [4]) | Ki [5] | Ki [6] | Ki [7] | Ki [8] | Structure (SMILES) |
| --- | --- | --- | --- | --- | --- | --- | --- | --- |
| 0.195% | 0.034% | 0.085% | 0.066% | – | – | – | – | COc1ccccc1N1CCN(CCN(C(=O)c2ccc(F)cc2)c2ccccn2)CC1 |
| 1.298% | 0.064% | 0.823% | 0.499% | 0.247 nM | 0.515 nM | – | – | COc1ccccc1N1CCN(CCN(C(=O)C2CCC(F)CC2)c2ccccn2)CC1 (stereo unspecified) |
| 0.118% | 0.02% | 0.047% | – | 0.791 nM | – | 1.14 nM | 3.96 nM | COc1ccccc1N1CCN(CCN(C(=O)c2ccc(F)c(C)c2)c2ccccn2)CC1 |
